Data reported in patent publication EP0183129A1, “Quinolonecarboxylic acid derivatives” (KYORIN PHARMACEUTICAL CO., LTD., priority 1984, dated 1986).
Values after ≈ are worked out from the molar mass of the structure shown. Read-outs that look alike come from different tables or passages of the source.

Experiments:
[1] = tested on: S. aureus IID 670 (Terajima); test: In vitro antibacterial activity, MIC (standard strain); type: cell-based, Staphylococcus aureus; conditions: S. aureus IID 670 (Terajima); 10^6 cells/ml; standard strain; listed as Exp.4
[2] = tested on: Escherichia coli NIHJ JC-2; test: as above; type: cell-based; conditions: Escherichia coli NIHJ JC-2; 10^6 cells/ml; standard strain; listed as Exp.4
P. aeruginosa IFO 12689 = test: as above; type: cell-based, Pseudomonas aeruginosa; conditions: P. aeruginosa IFO 12689; 10^6 cells/ml; standard strain
S. epidermidis IID 866 = test: as above; type: cell-based; conditions: S. epidermidis IID 866; 10^6 cells/ml; standard strain; listed as Exp.4
[3] = tested on: Fusobacterium varium KYA 8501; test: as above; type: cell-based; conditions: Fusobacterium varium KYA 8501; 10^6 cells/ml; standard strain; listed as Exp.4
B. fragilis 25285 = test: as above; type: cell-based, Bacteroides fragilis; conditions: B. fragilis 25285; 10^6 cells/ml; standard strain; listed as Exp.4
S. pneumoniae S-4288 = test: In vivo antibacterial activity against systemic infection in mice; design: species or system mice (ICR-S); conditions: Streptococcus pneumoniae, S4288; mice (ICR-S); oral, an hour after intraperitoneal infection; challenge dose 7.5 x 10^4 ~ 4.8 x 10^6 cfu/mouse; read-out: ED50 S. pneumoniae S-4288
Method: (§1) Experiment-2 In vivo antibacterial activity against systemic infection in mice (ICR-S)
(§2) The infections were produced by intraperitoneal injection of a suspension of the bacterial culture corresponding to the germ studied. The products were administered orally at an hour after the infection.

S. aureus Smith = test: as above; design: species or system mice (ICR-S); conditions: Staphylococcus aureus, po, mice (ICR-S), an hour after intraperitoneal infection
Method: as §1, §2

E. coli ML4707 = test: as above; design: species or system mice (ICR-S); conditions: Escherichia coli, ML4707; mice (ICR-S); oral, an hour after intraperitoneal infection; challenge dose 2.7 x 10^6 ~ 8.8 x 10^6 cfu/mouse; read-out: ED50 E. coli ML4707
Method: as §1, §2

[4] = tested on: Serratia marcescens IID 618; test: In vitro antibacterial activity, MIC (standard strain); type: cell-based; conditions: Serratia marcescens IID 618; 10^6 cells/ml; standard strain; listed as Exp.4
[5] = tested on: Alcaligenes faecalis 0104002; test: as above; type: cell-based; conditions: Alcaligenes faecalis 0104002; 10^6 cells/ml; standard strain; listed as Exp.4
[6] = tested on: Enterobacter cloacae IID 977; test: as above; type: cell-based; conditions: Enterobacter cloacae IID 977; 10^6 cells/ml; standard strain; listed as Exp.4
[7] = tested on: Acinetobacter anitratus IID 876; test: as above; type: cell-based; conditions: Acinetobacter anitratus IID 876; 10^6 cells/ml; standard strain; listed as Exp.4
B. fragilis 0558 = test: as above; type: cell-based, Bacteroides fragilis; conditions: B. fragilis 0558; 10^6 cells/ml; standard strain; listed as Exp.4
M. pneumoniae Mac. = test: In vitro antibacterial activity against Mycoplasma, MIC; type: cell-based; conditions: Mycoplasmoides pneumoniae, 120 h; M. pneumoniae Mac.; no visible growth after incubation for 5 days; read-out: MIC
Text: Experiment-3 In vitro antibacterial activity against Mycoplasma

With `NCC1CCN(c2c(F)cc3c(=O)c(C(=O)O)cn(C4CC4)c3c2F)C1` (stereo not shown) [Example 4, 7-(3-Aminomethyl-1-pyrrolidinyl)-1-cyclopropyl-6,8-difluoro-1,4-dihydro-4-oxo-3-quinolinecarboxylic acid] the MIC [1] was 0.025 µg/mL (≈ 0.0688 µM), the MIC [2] was 0.0125 µg/mL (≈ 0.0344 µM) and the MIC (P. aeruginosa IFO 12689) was 0.39 µg/mL (≈ 1.07 µM). For the same compound, the MIC (S. epidermidis IID 866) was 0.025 µg/mL (≈ 0.0688 µM), the MIC [3] was 1.56 µg/mL (≈ 4.29 µM) and the MIC (B. fragilis 25285) was 0.78 µg/mL (≈ 2.15 µM). It also gave an ED50 (S. pneumoniae S-4288) of 13.8 mg/kg, an ED50 (S. aureus Smith; challenge dose 5.5 x 10^5 cfu/mouse, n=5, read-out: ED50 against S. aureus Smith) of 1.57 mg/kg and an ED50 (S. aureus Smith; challenge dose 6.0 x 10^5 cfu/mouse, read-out: ED50 S. aureus Smith) of 1.8 mg/kg. For the same compound, the ED50 (E. coli ML4707) was 3 mg/kg, the MIC [4] was 0.10 µg/mL (≈ 0.275 µM) and the MIC [5] was 0.78 µg/mL (≈ 2.15 µM). The MIC [6] was 0.05 µg/mL (≈ 0.138 µM), the MIC [7] was 0.05 µg/mL (≈ 0.138 µM) and the MIC (B. fragilis 0558) was 0.78 µg/mL (≈ 2.15 µM). It also gave an MIC (M. pneumoniae Mac.) of 0.025 µg/mL (≈ 0.0688 µM).
